Source: paper PMC8279409, “Novel Mixed NOP/Opioid Receptor Peptide Agonists” (Journal of Medicinal Chemistry, 2021)
Read-outs that look alike come from different tables or passages of the source. Where a SMILES comes first, the peptide text is derived from it. [ ]: non-standard residue; d: D form. Phe(4-F) = N[C@@H](Cc1ccc(F)cc1)C(=O)O; hPhe = N[C@@H](CCc1ccccc1)C(=O)O; Phg = N[C@H](C(=O)O)c1ccccc1; Nle = CCCC[C@H](N)C(=O)O; Dab = NCC[C@H](N)C(=O)O; Nva = CCC[C@H](N)C(=O)O; Abu = CC[C@H](N)C(=O)O; Dap = NC[C@H](N)C(=O)O

What was measured:
human mu receptor = molecular target: T1, human mu receptor (Homo sapiens, UniProt P35372); experiment: Calcium mobilization, mu opioid receptor; assay type: cell-based; conditions: for mu pEC50 (CL95%): CHO cells coexpressing human mu receptor and Gαqi5, Fluo-4 AM, 37 °C, mean of at least three experiments in duplicate, CL95% in brackets; for mu Emax ± S.E.M. / activation at 10 µM / Emax: percent over the baseline fluorescence; for mu Emax ± S.E.M. / Emax: mean ± SEM of at least three experiments in duplicate; for pEC50_mu: molecular formula strings CSV, repeats calcium mobilization values of Tables 1-3; for activation at 10 µM: mean ± SEM; for activation at 10 µM / Emax: SEM
T1 construct: expressed in transfected cells; host or cells: CHO cells stably coexpressing the receptor and chimeric Gαqi5

human NOP receptor = molecular target: T2, human NOP receptor (Homo sapiens, UniProt P41146); experiment: Calcium mobilization, NOP receptor; assay type: cell-based; conditions: for NOP pEC50 (CL95%): CHO cells coexpressing human NOP and Gαqi5, Fluo-4 AM, 37 °C, mean of at least three experiments in duplicate, CL95% in brackets; for NOP/mu CR (concentration ratio): calcium mobilization, NOP versus mu; for Emax: mean ± SEM of at least three experiments in duplicate, SEM
T2 construct: expressed in transfected cells; host or cells: CHO cells stably coexpressing the receptor and chimeric Gαqi5
Experimental: CHO cells stably coexpressing the human NOP or kappa or the mu receptor and the C-terminally modified Gαqi5 and CHO cells coexpressing the delta receptor and the GαqG66Di5 protein were generated and cultured as described previously.[45],[46] Cells were maintained in Dulbecco’s modified Eagle’s medium/nutrient mixture F-12 (DEMEM/F-12) supplemented with 10% FBS, 100 U/mL penicillin and 100 μg/mL streptomycin, 100 μg/mL hygromicin B, and 200 μg/mL G418 and cultured at 37 °C in 5% CO2 humidified air. Cells were seeded at a density of 50,000 cells/well into 96-well black, clear-bottom plates. The following day, the cells were incubated with Hanks’ balanced salt solution (HBSS) supplemented with 2.5 mM probenecid, 3 μM of the calcium-sensitive fluorescent dye Fluo-4 AM, and 0.01% pluronic acid for 30 min at 37 °C. After that time, the loading solution was aspirated and 100 μL/well of HBSS supplemented with 20 mM HEPES, 2.5 mM probenecid, and 500 μM brilliant black was added. Serial dilutions were carried out in HBSS/HEPES (20 mM) buffer (containing 0.02% BSA fraction V). After placing both plates (cell culture and master plate) into the fluorometric imaging plate reader FlexStation II (Molecular Devices, Sunnyvale, CA), fluorescence changes were measured. On-line additions were carried out in a volume of 50 μL/well. To facilitate drug diffusion into the wells, the present studies were performed at 37 °C. Maximum change in fluorescence, expressed as percent over the baseline fluorescence, was used to determine agonist response.
The pharmacological terminology adopted in this paper is consistent with IUPHAR recommendations.[59] All data are expressed as the mean ± standard error of the mean (SEM) of at least three experiments performed in duplicate. […] Concentration-response curves to agonists were fitted to the classical four-parameter logistic nonlinear regression model:
Effect = Baseline + (Emax – Baseline)/(1 + 10^(LogEC50 – Log[compound]) × Hillslope). Curve fitting was performed using PRISM 6.0 (GraphPad Software Inc., San Diego).

[1] = read-out: NOP Emax ± S.E.M., Table 1 series, maximum change in fluorescence as percent over the baseline fluorescence
[2] = read-out: mu effect at 10 μM (crc incomplete), Table 1 series
[3] = read-out: mu Emax ± S.E.M, Table 1 series
[4] = read-out: NOP Emax ± S.E.M., Table 2 series, percent over the baseline fluorescence
[5] = read-out: mu effect at 10 μM (crc incomplete), Table 2 series

T1 sequence (P35372 whole entry): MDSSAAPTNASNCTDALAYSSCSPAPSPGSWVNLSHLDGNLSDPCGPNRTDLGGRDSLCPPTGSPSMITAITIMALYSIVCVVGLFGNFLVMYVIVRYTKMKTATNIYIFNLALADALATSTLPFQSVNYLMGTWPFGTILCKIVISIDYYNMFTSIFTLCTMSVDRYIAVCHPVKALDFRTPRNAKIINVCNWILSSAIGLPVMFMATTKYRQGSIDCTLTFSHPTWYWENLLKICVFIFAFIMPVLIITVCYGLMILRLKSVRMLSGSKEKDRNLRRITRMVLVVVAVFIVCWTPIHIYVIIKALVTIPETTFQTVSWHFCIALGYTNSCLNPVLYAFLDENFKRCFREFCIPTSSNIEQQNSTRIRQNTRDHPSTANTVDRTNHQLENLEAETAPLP
T2 sequence (P41146 whole entry): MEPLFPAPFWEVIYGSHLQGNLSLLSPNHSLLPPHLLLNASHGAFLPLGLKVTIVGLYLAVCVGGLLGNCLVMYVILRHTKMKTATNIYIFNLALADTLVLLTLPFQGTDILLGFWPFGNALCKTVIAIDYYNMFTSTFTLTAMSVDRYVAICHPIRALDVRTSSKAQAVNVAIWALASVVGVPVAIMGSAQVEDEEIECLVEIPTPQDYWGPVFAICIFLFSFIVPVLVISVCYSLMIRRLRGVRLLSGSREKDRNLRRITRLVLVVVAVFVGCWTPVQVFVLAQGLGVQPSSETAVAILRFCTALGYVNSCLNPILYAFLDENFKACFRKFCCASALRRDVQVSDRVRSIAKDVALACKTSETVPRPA

SMILES	mu pEC50 (CL95%) (human mu receptor; Table 1 series)	mu pEC50 (CL95%) (human mu receptor; Table 2 series)	pEC50_mu (human mu receptor)	NOP pEC50 (CL95%) (human NOP receptor; Table 1 series, FlexStation II)	NOP/mu CR (concentration ratio) (human NOP receptor; Table 1 series)	Emax (human NOP receptor; [1])	activation at 10 µM (human mu receptor; [2])	Emax (human NOP receptor; [4])	activation at 10 µM (human mu receptor; [5])	also measured
C[C@H](NC(=O)CNC(=O)[C@@H](NC(=O)[C@H](Cc1ccccc1)NC(=O)CNC(=O)CNC(=O)[C@@H](N)Cc1ccccc1)[C@@H](C)O)C(=O)N[C@@H](CCCNC(=N)N)C(=O)N[C@@H](CCCCN)C(=O)N[C@@H](CO)C(=O)N[C@@H](C)C(=O)N[C@@H](CCCNC(=N)N)C(=O)N[C@@H](CCCCN)C(N)=O [Compound 1, N/OFQ(1-13)NH2, reference compound]	inactive	inactive	inactive							mu Emax ± S.E.M. (human mu receptor; Table 1 series): inactive; mu Emax ± S.E.M. (human mu receptor; Table 2 series): inactive; mu pEC50 (CL95%) (human mu receptor; Table 3 series): inactive; mu Emax ± S.E.M. (human mu receptor; Table 3 series): inactive
CC[C@H](NC(=O)[C@H](Cc1ccccc1)NC(=O)CNC(=O)CNC(=O)[C@@H](N)Cc1ccc(O)cc1)C(=O)NCC(=O)N[C@@H](C)C(=O)N[C@@H](CCCNC(=N)N)C(=O)N[C@@H](CCCCN)C(=O)N[C@@H](CO)C(=O)N[C@@H](C)C(=O)N[C@@H](CCCNC(=N)N)C(=O)N[C@@H](CCCCN)C(N)=O [Compound 7, [Tyr^1,Abu^5]N/OFQ(1-13)-NH2] (H-YGGF[Abu]GARKSARK-NH2)	crc incomplete; 10 μM: 213 ± 37		crc incomplete	8.15 (7.61–8.69)	0.007	366 ± 20%	213 ± 37%			
C[C@H](NC(=O)CNC(=O)[C@H](CN)NC(=O)[C@H](Cc1ccccc1)NC(=O)CNC(=O)CNC(=O)[C@@H](N)Cc1ccc(O)cc1)C(=O)N[C@@H](CCCNC(=N)N)C(=O)N[C@@H](CCCCN)C(=O)N[C@@H](CO)C(=O)N[C@@H](C)C(=O)N[C@@H](CCCNC(=N)N)C(=O)N[C@@H](CCCCN)C(N)=O [Compound 9, [Tyr^1,Dap^5]N/OFQ(1-13)-NH2] (H-YGGF[Dap]GARKSARK-NH2)	crc incomplete; 10 μM: 144 ± 44		crc incomplete	7.20 (6.95–7.45)	0.06	367 ± 9%	144 ± 44%			
C[C@H](NC(=O)CNC(=O)[C@H](CCN)NC(=O)[C@H](Cc1ccccc1)NC(=O)CNC(=O)CNC(=O)[C@@H](N)Cc1ccc(O)cc1)C(=O)N[C@@H](CCCNC(=N)N)C(=O)N[C@@H](CCCCN)C(=O)N[C@@H](CO)C(=O)N[C@@H](C)C(=O)N[C@@H](CCCNC(=N)N)C(=O)N[C@@H](CCCCN)C(N)=O [Compound 10, [Tyr^1,Dab^5]N/OFQ(1-13)-NH2] (H-YGGF[Dab]GARKSARK-NH2)	crc incomplete; 10 μM: 41 ± 4		crc incomplete	6.43 (6.28–6.58)	0.37	340 ± 22%	41 ± 4%			
CCCC[C@H](NC(=O)[C@H](Cc1ccccc1)NC(=O)CNC(=O)CNC(=O)[C@@H](N)Cc1ccc(O)cc1)C(=O)NCC(=O)N[C@@H](C)C(=O)N[C@@H](CCCNC(=N)N)C(=O)N[C@@H](CCCCN)C(=O)N[C@@H](CO)C(=O)N[C@@H](C)C(=O)N[C@@H](CCCNC(=N)N)C(=O)N[C@@H](CCCCN)C(N)=O [Compound 12, [Tyr^1,Nle^5]N/OFQ(1-13)-NH2] (H-YGGF[Nle]GARKSARK-NH2)	6.74 (6.15–7.33)			8.77 (8.45–9.09)	0.01	375 ± 9%				Emax (human mu receptor; [3]): 323 ± 4%
CCC[C@H](NC(=O)[C@H](Cc1ccccc1)NC(=O)CNC(=O)CNC(=O)[C@@H](N)Cc1ccc(O)cc1)C(=O)NCC(=O)N[C@@H](C)C(=O)N[C@@H](CCCNC(=N)N)C(=O)N[C@@H](CCCCN)C(=O)N[C@@H](CO)C(=O)N[C@@H](C)C(=O)N[C@@H](CCCNC(=N)N)C(=O)N[C@@H](CCCCN)C(N)=O [Compound 13, [Tyr^1,Nva^5]N/OFQ(1-13)-NH2] (H-YGGF[Nva]GARKSARK-NH2)	6.25 (5.59–6.91)			8.43 (7.55–9.31)	0.007	358 ± 14%				Emax (human mu receptor; [3]): 313 ± 19%
C[C@H](NC(=O)CNC(=O)[C@H](CCc1ccccc1)NC(=O)[C@H](Cc1ccccc1)NC(=O)CNC(=O)CNC(=O)[C@@H](N)Cc1ccc(O)cc1)C(=O)N[C@@H](CCCNC(=N)N)C(=O)N[C@@H](CCCCN)C(=O)N[C@@H](CO)C(=O)N[C@@H](C)C(=O)N[C@@H](CCCNC(=N)N)C(=O)N[C@@H](CCCCN)C(N)=O [Compound 18, [Tyr^1,hPhe^5]N/OFQ(1-13)-NH2] (H-YGGF[hPhe]GARKSARK-NH2)		crc incomplete; 10 μM: 228 ± 29	crc incomplete					301 ± 26%	228 ± 29%	NOP pEC50 (CL95%) (human NOP receptor; Table 2 series): 8.70 (8.24–9.16); NOP/mu CR (concentration ratio) (human NOP receptor; Table 2 series): 0.003
C[C@H](NC(=O)CNC(=O)[C@@H](NC(=O)[C@H](Cc1ccccc1)NC(=O)CNC(=O)CNC(=O)[C@@H](N)Cc1ccc(O)cc1)c1ccccc1)C(=O)N[C@@H](CCCNC(=N)N)C(=O)N[C@@H](CCCCN)C(=O)N[C@@H](CO)C(=O)N[C@@H](C)C(=O)N[C@@H](CCCNC(=N)N)C(=O)N[C@@H](CCCCN)C(N)=O [Compound 19, [Tyr^1,Phg^5]N/OFQ(1-13)-NH2] (H-YGGF[Phg]GARKSARK-NH2)		6.81 (6.33–7.29)						293 ± 31%		NOP pEC50 (CL95%) (human NOP receptor; Table 2 series): 7.57 (7.12–8.02); NOP/mu CR (concentration ratio) (human NOP receptor; Table 2 series): 0.17; Emax (human mu receptor; read-out: mu Emax ± S.E.M., Table 2 series): 287 ± 48%
COc1ccc(C[C@H](NC(=O)[C@H](Cc2ccccc2)NC(=O)CNC(=O)CNC(=O)[C@@H](N)Cc2ccc(O)cc2)C(=O)NCC(=O)N[C@@H](C)C(=O)N[C@@H](CCCNC(=N)N)C(=O)N[C@@H](CCCCN)C(=O)N[C@@H](CO)C(=O)N[C@@H](C)C(=O)N[C@@H](CCCNC(=N)N)C(=O)N[C@@H](CCCCN)C(N)=O)cc1 [Compound 20, [Tyr^1,p(OCH3)Phe^5]N/OFQ(1-13)-NH2] (H-YGGFY(Me)GARKSARK-NH2)		crc incomplete; 10 μM: 221 ± 49	crc incomplete					246 ± 18%	221 ± 49%	
C[C@H](NC(=O)CNC(=O)[C@H](Cc1ccc(F)cc1)NC(=O)[C@H](Cc1ccccc1)NC(=O)CNC(=O)CNC(=O)[C@@H](N)Cc1ccc(O)cc1)C(=O)N[C@@H](CCCNC(=N)N)C(=O)N[C@@H](CCCCN)C(=O)N[C@@H](CO)C(=O)N[C@@H](C)C(=O)N[C@@H](CCCNC(=N)N)C(=O)N[C@@H](CCCCN)C(N)=O [Compound 21, [Tyr^1,(pF)Phe^5]N/OFQ(1-13)-NH2] (H-YGGF[Phe(4-F)]GARKSARK-NH2)		crc incomplete; 10 μM: 256 ± 55	crc incomplete					311 ± 22%	256 ± 55%	
